pIC50: −log10 of the molar value.

In this test the target is human IDO1 (Homo sapiens, UniProt P14902). Put plainly: Assessment of human IDO-1 inhibitory activity in HEK cells (human IDO1/HEK293 cells, Ehrlich reagent, absorbance at 490 nm). Further details: expressed in transfected cells. As to conditions: In Vitro Potency in the HEK Human IDO-1 Cellular Assay. In kind it is cell-based. How it is done: Exemplary compounds were tested for inhibition of IDO activity.
Sequence of human IDO1 (P14902 whole entry): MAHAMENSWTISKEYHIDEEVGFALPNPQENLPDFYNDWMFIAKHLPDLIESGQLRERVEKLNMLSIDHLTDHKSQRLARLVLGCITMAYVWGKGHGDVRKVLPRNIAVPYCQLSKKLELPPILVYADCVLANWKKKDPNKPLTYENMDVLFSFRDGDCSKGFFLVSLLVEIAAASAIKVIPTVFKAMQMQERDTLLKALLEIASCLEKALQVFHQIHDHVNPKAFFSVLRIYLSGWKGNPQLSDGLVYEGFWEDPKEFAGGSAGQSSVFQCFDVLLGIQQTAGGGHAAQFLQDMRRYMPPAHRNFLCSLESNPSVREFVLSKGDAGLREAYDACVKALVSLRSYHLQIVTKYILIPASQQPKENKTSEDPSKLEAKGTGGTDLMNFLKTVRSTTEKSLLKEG
HEK293 cells were transfected with a pCDNA-based mammalian expression vector harboring human IDO1 cDNA (NM 002164.2) by electroporation. They were cultured in medium (DMEM with 10% FBS) containing 1 mg/ml G418 for two weeks. Clones of HEK293 cells that stably expressed human IDO1 protein were selected and expanded for IDO inhibition assay.
The human IDO1/HEK293 cells were seeded at 10,000 cells per 50 μL per well with RPMI/phenol red free media contains 10% FBS in a 384-well black wall clear bottom tissue culture plate (Matrix Technologies LLC) 100 nL of certain concentration of compound was then added to each well using ECHO liquid handling systems. The cells were incubated for 20 hours in 37° C. incubator with 5% CO2.
The compound treatments were stopped by adding trichloroacetic acid (Sigma-Aldrich) to a final concentration at 0.2%. The cell plate was further incubated at 50° C. for 30 minute. The equal volume supernatant (20 μL) and 0.2% (w/v) Ehrlich reagent (4-dimethylaminobenzaldehyde, Sigma-Aldrich) in glacial acetic acid were mixed in a new clear bottom 384-well plate. This plate was then incubated at room temperature for 30 minute. The absorbance at 490 nm was measured on Envision plate reader.
Compound IC50 values were calculated using the counts of 500 nM of a reference standard treatment as one hundred percent inhibition, and counts of no compound but DMSO treatment as zero percent inhibition.
Regarding `CCC(CC(=O)O)c1ccc(N(CC(C)C)C2CCCCC2)c(Nc2ccc(Cl)c(OCC(F)(F)F)c2)c1` (single isomer, unassigned) [Example 651, 3-(3-((4-chloro-3-(2,2,2-trifluoroethoxy)phenyl)amino)-4-(cyclohexyl(isobutyl)amino)phenyl)pentanoic acid], the negative-log IC50 (pIC50) was more than 7.30.
The result for `CCOc1ccc(NC(=O)Nc2cc([C@@H](CC)CC(=O)O)ccc2N(CC)C2CCOCC2)cc1` (single isomer, unassigned) [Example 491] reads more than 7.30; that for `Cc1ccc(NC(=O)Nc2cc(C(C)CC(=O)O)ccc2N(CC(C)C)C2CCOCC2)cc1` (single isomer, unassigned) [Example 965, 3-(4-(isobutyl(tetrahydro-2H-pyran-4-yl)amino)-3-(3-(p-tolyl)ureido)phenyl)butanoic acid], more than 7.30.
The result for `COCC(CC(=O)O)c1ccc(N(CC(C)C)CC(C)C)c(NC(=O)Nc2ccc(Cl)cc2F)c1` (single isomer, unassigned) [Example 995-2] reads more than 8.30.
The value for `CCC(CC(=O)O)c1ccc(N(CC(C)C)C2CCCCC2)c(Nc2ccc(Cl)c(OCC3CC3)c2)c1` (single isomer, unassigned) [Example 652, 3-(3-((4-chloro-3-(cyclopropylmethoxy)phenyl)amino)-4-(cyclohexyl(isobutyl)amino)phenyl)pentanoic acid] was more than 7.30.
Compound `CCC(CC(=O)O)c1cc(F)c(N(CC(C)C)CC(C)C)c(NC(=O)c2ccc(Cl)cc2)c1` (single isomer, unassigned) [Example 128, 3-(3-(4-Chlorobenzamido)-4-(diisobutylamino)-5-fluorophenyl)pentanoic acid] showed a negative-log IC50 (pIC50) of less than 7.30.
The value for `COCC(CC(=O)O)c1ccc(N(CC(C)C)C2CCC(OC)CC2)c(NC(=O)Nc2ccc(C)cc2)c1` (racemic) [Example 1147] was more than 7.30; that for `COCC(CC(=O)O)c1cc(F)c(N(CC(C)C)C2CCCCC2)c(NC(=O)Cc2ccc(C)cc2)c1` (single isomer, unassigned) [Example 1174, 3-(4-(cyclohexyl(isobutyl)amino)-3-fluoro-5-(2-(p-tolyl)acetamido)phenyl)-4-methoxybutanoic acid] was more than 7.30; that for `Cc1cc(NC(=O)Nc2cc(C(CC(=O)O)C3CC3)ccc2N(CC(C)C)C2CCOCC2)no1` (single isomer, unassigned) [Example 1201 Enantiomer 2, 3-Cyclopropyl-3-(4-(isobutyl(tetrahydro-2H-pyran-4-yl)amino)-3-(3-(5-methylisoxazol-3-yl)ureido)phenyl)propanoic acid] was more than 7.30.
The result for `CCC(CC(=O)O)c1ccc(N(CCC(C)C)C2CCCCC2)c(NC(=O)Cc2ccc(F)cc2)c1` (racemic) [Example 1089] reads less than 7.30; that for `COCC(CC(=O)O)c1ccc(N(CC(C)C)C2CCCCC2)c(NC(=O)Nc2ccccc2F)c1` (single isomer, unassigned) [1125 E1], more than 8.30.
The result for `COCC(CC(=O)O)c1cc(F)c(N(CC(C)C)CC(C)C)c(NC(=O)Nc2cc(C)on2)c1` (single isomer, unassigned) [Example 1188, 3-(4-(Diisobutylamino)-3-fluoro-5-(3-(5-methylisoxazol-3-yl)ureido)phenyl)-4-methoxybutanoic acid] reads more than 7.30; that for `CCOc1ccc(Nc2cc([C@H](CC)CC(=O)O)ccc2N(CC)C2CCOCC2)cc1` (single isomer, unassigned) [Example 514], more than 8.30; that for `CCC(CC(=O)O)c1ccc(N(CC(C)C)C2CCCCC2)c(Nc2ccc3c(c2)OCCO3)c1` (single isomer, unassigned) [Example 317, 3-(4-(cyclohexyl(isobutyl)amino)-3-((2,3-dihydrobenzo[b][1,4]dioxin-6-yl)amino)phenyl)pentanoic acid], more than 7.30.
In turn, `CCN(c1ccc(C(CC(=O)O)c2ccccc2)cc1Nc1ccc(OC(F)F)cc1)C1CCOCC1` (single isomer, unassigned) [Example 593, 3-(3-((4-(difluoromethoxy)phenyl)amino)-4-(ethyl(tetrahydro-2H-pyran-4-yl)amino)phenyl)-3-phenylpropanoic acid] showed a pIC50 of more than 7.30.
The result for `CCC(CC(=O)O)c1ccc(N2CC3CC2CN3Cc2ccccc2)c(NC(=O)Nc2ccc(C)cc2)c1` (single isomer, unassigned) [667 E2] reads less than 7.30; that for `CCC(CC(=O)O)c1ccc(N2C[C@@H](C)O[C@@H](C)C2)c(Nc2ccc(F)cc2)c1` (single isomer, unassigned) [Example 759], less than 7.30.
The result for `CCc1cnc(Nc2cc([C@@H](CC)CC(=O)O)ccc2N(CC)C2CCCCC2)nc1` (single isomer, unassigned) [Example 280] reads less than 7.30; that for `CCC(CC(=O)O)c1ccc(N2CCC[C@@H]2C(C)(C)O)c(NC(=O)Nc2ccc(Cl)cc2F)c1` (single isomer, unassigned) [Example 776], less than 7.30; that for `CCOc1ncc(Nc2cc(C(C)CC(=O)O)ccc2N2CCC[C@H]2C(C)(C)O)cn1` (single isomer, unassigned) [Example 806], less than 7.30.
The result for `CCc1ccc(Nc2cc(C(C)CC(=O)O)ccc2N2C[C@@H](C)O[C@@H](C)C2)cc1` (single isomer, unassigned) [Example 746] reads less than 7.30; that for `CC(C)CN(CC(C)C)c1c(F)cc(C(CC(=O)O)c2ccccc2)cc1Nc1ccc(Cl)cc1` (single isomer, unassigned) [Example 131, 3-(3-((4-chlorophenyl)amino)-4-(diisobutylamino)-5-fluorophenyl)-3-phenylpropanoic acid], more than 7.30.
For `CCC(CC(=O)O)c1cc(F)c(N(CC(C)C)CC(C)C)c(Nc2ccc(OCC3CC3)cc2)c1` (single isomer, unassigned) [Example 122, 3-(3-((4-(cyclopropylmethoxy)phenyl)amino)-4-(diisobutylamino)-5-fluorophenyl)pentanoic acid], the pIC50 was more than 7.30.
The value for `CCC(CC(=O)O)c1cc(F)c(N(CC(C)C)CC(C)C)c(Nc2ccc3nc(C)sc3c2)c1` (single isomer, unassigned) [Example 111, 3-(4-(diisobutylamino)-3-fluoro-5-((2-methylbenzo [d]thiazol-6-yl)amino)phenyl)pentanoic acid] was less than 7.30.
The result for “3-(4-((1,1-dioxidotetrahydro-2H-thiopyran-4-yl)(ethyl)amino)-3-((4-fluorophenyl)amino)phenyl)-4-isopropoxybutanoic acid [Example 300]” reads more than 7.30; that for `COCC(CC(=O)O)c1cc(F)c(N(CC(C)C)CC(C)C)c(NC(=O)Nc2ccc(OC)cc2F)c1` (single isomer, unassigned) [Example 1189, 3-(4-(Diisobutylamino)-3-fluoro-5-(3-(2-fluoro-4-methoxyphenyl)ureido)phenyl)-4-methoxybutanoic acid], more than 8.30.
The compound `COCC(CC(=O)O)c1ccc(N(CC(C)C)CC(C)C)c(NC(=O)Nc2cc(C)on2)c1` (single isomer, unassigned) [Example 999-2] showed a negative logarithm of the IC50 (pIC50) of more than 7.30.
The value for `CCC(CC(=O)O)c1cc(F)c(N(CC(C)C)CC(C)C)c(Nc2ccc(OCC(F)(F)F)cc2)c1` (single isomer, unassigned) [Example 114, 3-(4-(diisobutylamino)-3-fluoro-5-((4-(2,2,2-trifluoroethoxy)phenyl)amino)phenyl)pentanoic acid] was less than 7.30; that for `COCC(CC(=O)O)c1cc(F)c(N(CC(C)C)CC(C)C)c(NC(=O)Nc2ccc(Cl)cc2F)c1` (single isomer, unassigned) [Example 1195, 3-(3-(3-(4-Chloro-2-fluorophenyl)ureido)-4-(diisobutylamino)-5-fluorophenyl)-4-methoxybutanoic acid] was more than 8.30; that for `CCC(CC(=O)O)c1ccc(N(CC(C)C)C(C)C)c(Nc2ccc(Cl)cc2)c1` (single isomer, unassigned) [Example 728, 3-(3-((4-Chlorophenyl)amino)-4-(isobutyl(isopropyl)amino)phenyl)pentanoic acid] was more than 8.30.
For `CCC(CC(=O)O)c1cc(F)c(N(CC(C)C)C2CCCCC2)c(NC(=O)Nc2ccc(C)cc2)c1` (racemic) [Example 1091], the negative logarithm of the IC50 (pIC50) is more than 8.30.
The result for `CCC(CC(=O)O)c1ccc(N2CCC[C@H]2C(C)(C)O)c(NC(=O)Nc2ccc(OC)cc2)c1` (single isomer, unassigned) [Example 827] reads less than 7.30.
The value for `COCC(CC(=O)O)c1cc(F)c(N(CC(C)C)C2CCCCC2)c(NC(=O)Nc2ccc(Cl)cc2)c1` (single isomer, unassigned) [Example 1166, 3-(3-(3-(4-chlorophenyl)ureido)-4-(cyclohexyl(isobutyl)amino)-5-fluorophenyl)-4-methoxybutanoic acid] was more than 8.30; that for `CCOc1ccc(CC(=O)Nc2cc(C(COC)CC(=O)O)cc(F)c2N(CC(C)C)C2CCCCC2)cc1` (single isomer, unassigned) [Example 1173, 3-(4-(cyclohexyl(isobutyl)amino)-3-(2-(4-ethoxyphenyl)acetamido)-5-fluorophenyl)-4-methoxybutanoic acid] was more than 7.30.

The term pIC50 denotes −log10 of the IC50, conventionally taken in molar units. Read a low pIC50 as a large IC50.
